According to patent publication US11180470B2, “Herbicidal pyrimidine compounds” (BASF SE, priority 2016, dated 2021):

What was measured:
ALOMY = test: greenhouse experiment, post-emergence treatment; format: in vivo, Alopecurus myosuroides; conditions: post-emergence method, application rate 2000 g/ha, scale from 0 to 100
From the text: (§1) The culture containers used were plastic flowerpots containing loamy sand with approximately 3.0% of humus as the substrate. The seeds of the test plants were sown separately for each species.
(§2) For the post-emergence treatment, the test plants were first grown to a height of 3 to 15 cm, depending on the plant habit, and only then treated with the active ingredients which had been suspended or emulsified in water. For this purpose, the test plants were either sown directly and grown in the same containers, or they were first grown separately as seedlings and transplanted into the test containers a few days prior to treatment.
(§3) Depending on the species, the plants were kept at 10-25° C. or 20-35° C., respectively.
(§4) The test period extended over 2 to 4 weeks. During this time, the plants were tended, and their response to the individual treatments was evaluated.
(§5) Evaluation was carried out using a scale from 0 to 100. 100 means no emergence of the plants, or complete destruction of at least the aerial moieties, and 0 means no damage, or normal course of growth. A good herbicidal activity is given at values of at least 70 and a very good herbicidal activity is given at values of at least 85.
(§6) The plants used in the greenhouse experiments were of the following species: […]

APESV = test: greenhouse experiment, pre-emergence treatment; format: in vivo, Apera spica-venti; conditions: pre-emergence method, application rate 2000 g/ha, scale from 0 to 100
From the text: (§7) The seeds of the test plants were sown separately for each species. For the pre-emergence treatment, the active ingredients, which had been suspended or emulsified in water, were applied directly after sowing by means of finely distributing nozzles. The containers were irrigated gently to promote germination and growth and subsequently covered with transparent plastic hoods until the plants had rooted. This cover caused uniform germination of the test plants, unless this had been impaired by the active ingredients. Depending on the species, the plants were kept at 10-25° C. or 20-35° C., respectively. The test period extended over 2 to 4 weeks. During this time, the plants were tended, and their response to the individual treatments was evaluated. Evaluation was carried out using a scale from 0 to 100. 100 means no emergence of the plants, or complete destruction of at least the aerial moieties, and 0 means no damage, or normal course of growth. A good herbicidal activity is given at values of at least 70 and a very good herbicidal activity is given at values of at least 85. The plants used in the greenhouse experiments were of the following species: [table]

SETVI = test: greenhouse experiment, post-emergence treatment; format: in vivo, Setaria viridis; conditions: post-emergence method, application rate 2000 g/ha, scale from 0 to 100
From the text: as §1, §2, §3, §4, §5, §6

ECHCG [1] = test: greenhouse experiment, pre-emergence treatment; format: in vivo, Echinocloa crus-galli; conditions: pre-emergence method, application rate 2000 g/ha, scale from 0 to 100
From the text: as §7

ABUTH = test: greenhouse experiment, post-emergence treatment; format: in vivo, Abutilon theophrasti; conditions: post-emergence method, application rate 2000 g/ha, scale from 0 to 100
From the text: as §1, §2, §3, §4, §5, §6

AVEFA = test: greenhouse experiment, post-emergence treatment; format: in vivo, Avena fatua; conditions: post-emergence method, application rate 2000 g/ha, scale from 0 to 100
From the text: as §1, §2, §3, §4, §5, §6

AMARE = test: greenhouse experiment, post-emergence treatment; format: in vivo, Amaranthus retroflexus; conditions: post-emergence method, application rate 2000 g/ha, scale from 0 to 100
From the text: as §1, §2, §3, §4, §5, §6

ECHCG [2] = test: greenhouse experiment, post-emergence treatment; format: in vivo, Echinocloa crus-galli; conditions: post-emergence method, application rate 2000 g/ha, scale from 0 to 100
Protocol: The seeds of the test plants were sown separately for each species. […] For this purpose, the test plants were either sown directly and grown in the same containers, or they were first grown separately as seedlings and transplanted into the test containers a few days prior to treatment. Depending on the species, the plants were kept at 10-25° C. or 20-35° C., respectively. The test period extended over 2 to 4 weeks. During this time, the plants were tended, and their response to the individual treatments was evaluated. Evaluation was carried out using a scale from 0 to 100. 100 means no emergence of the plants, or complete destruction of at least the aerial moieties, and 0 means no damage, or normal course of growth. A good herbicidal activity is given at values of at least 70 and a very good herbicidal activity is given at values of at least 85. The plants used in the greenhouse experiments were of the following species: [table]

| SMILES | herbicidal activity against ALOMY (ALOMY) | herbicidal activity against APESV (APESV) | herbicidal activity against SETVI (SETVI) | herbicidal activity against ECHCG (ECHCG [1]) | herbicidal activity against ABUTH (ABUTH) | herbicidal activity against AVEFA (AVEFA) | herbicidal activity against AMARE (AMARE) | herbicidal activity against ECHCG (ECHCG [2]) |
| --- | --- | --- | --- | --- | --- | --- | --- | --- |
| COC(=O)c1nc(C2CC2)ncc1-c1cc(C(F)(F)F)ncc1Cl [Example 63] | very good (a very good herbicidal activity is given at values of at least 85) | very good (a very good herbicidal activity is given at values of at least 85) | very good (a very good herbicidal activity is given at values of at least 85) | very good (a very good herbicidal activity is given at values of at least 85) | very good (a very good herbicidal activity is given at values of at least 85) |  |  |  |
| COC(=O)c1nc(C2CC2)ncc1-c1nc(C(F)(F)F)ccc1F [Example 61] | very good (a very good herbicidal activity is given at values of at least 85) | good (A good herbicidal activity is given at values of at least 70) | very good (a very good herbicidal activity is given at values of at least 85) | very good (a very good herbicidal activity is given at values of at least 85) |  | very good (a very good herbicidal activity is given at values of at least 85) |  |  |
| COC(=O)c1nc(C2CC2)ncc1-c1ncc(F)cc1F [Example 31] |  | very good (a very good herbicidal activity is given at values of at least 85) | very good (a very good herbicidal activity is given at values of at least 85) |  | good (A good herbicidal activity is given at values of at least 70) |  |  |  |
| COC(=O)c1nc(C2CC2)ncc1-c1ccncc1F [Example 33] |  | good (A good herbicidal activity is given at values of at least 70) | very good (a very good herbicidal activity is given at values of at least 85) |  |  | very good (a very good herbicidal activity is given at values of at least 85) | very good (a very good herbicidal activity is given at values of at least 85) |  |
| COC(=O)c1nc(C2CC2)ncc1-c1ncccc1F [Example 19] |  |  | very good (a very good herbicidal activity is given at values of at least 85) |  |  |  | very good (a very good herbicidal activity is given at values of at least 85) | very good (a very good herbicidal activity is given at values of at least 85) |
